{"source": "patent US7109354B2", "about": "“Thiophene amidines, compositions thereof, and methods of treating complement-mediated diseases and conditions” (3-Dimensional Pharmaceuticals, Inc., priority 2002, dated 2006)", "note": "Where a name gives a salt, the structure may show the parent alone."}
{"target": "T1, Activated human C1s (Homo sapiens, UniProt P09871)", "T1 construct": "purchased Calbiochem (La Jolla, Calif.)", "T1 sequence (P09871 438-688 limits assumed)": "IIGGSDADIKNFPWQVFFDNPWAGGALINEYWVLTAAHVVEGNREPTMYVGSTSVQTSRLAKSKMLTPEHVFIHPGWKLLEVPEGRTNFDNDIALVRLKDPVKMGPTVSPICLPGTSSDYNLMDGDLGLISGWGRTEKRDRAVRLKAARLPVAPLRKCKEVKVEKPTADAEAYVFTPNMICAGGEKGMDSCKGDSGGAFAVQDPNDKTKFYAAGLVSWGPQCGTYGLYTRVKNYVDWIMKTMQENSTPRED", "T1 sequence (P09871 16-437 partner limits assumed)": "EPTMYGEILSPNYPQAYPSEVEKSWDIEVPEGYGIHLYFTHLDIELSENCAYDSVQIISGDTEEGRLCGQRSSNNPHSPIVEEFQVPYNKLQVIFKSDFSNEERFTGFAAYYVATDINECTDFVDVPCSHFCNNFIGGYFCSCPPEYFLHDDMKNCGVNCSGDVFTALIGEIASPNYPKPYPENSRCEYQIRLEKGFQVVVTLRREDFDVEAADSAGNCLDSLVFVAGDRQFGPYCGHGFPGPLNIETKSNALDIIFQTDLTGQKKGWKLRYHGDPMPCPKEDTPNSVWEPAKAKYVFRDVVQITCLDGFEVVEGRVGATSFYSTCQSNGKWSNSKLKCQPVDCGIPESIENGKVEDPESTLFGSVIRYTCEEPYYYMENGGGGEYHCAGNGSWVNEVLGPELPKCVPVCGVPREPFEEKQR", "test": "In vitro inhibition of C1s (Ki determination, C1s-catalyzed hydrolysis of Z-Gly-Arg-S-Bzl, DTNB readout)", "type": "biochemical", "conditions": "substrate Z-Gly-Arg-S-Bzl 45 μM, DTNB 200 μM, C1s 2.3 nM, pH 7.5, 37° C., absorbance at 405 nm", "units": {"Ki": "µM"}}
{"smiles": "CSc1sc(C(=N)N)cc1S(=O)(=O)c1cccc(-c2ccc(C(C)=O)cc2)c1", "note": "[Example 85, 4-(4′-acetyl-biphenyl-3-sulfonyl)-5-methylsulfanyl-thiophene-2-carboxamidine]", "Ki": "0.006 to 0.023"}
{"smiles": "CSc1sc(C(=N)N)cc1S(=O)(=O)c1cccc(-c2cccc(C(=O)OC(C)C)c2C)c1", "note": "[Example 3, 3′-(5-Carbamimidoyl-2-methylsulfanyl-thiophene-3-sulfonyl)-2-methyl-biphenyl-3-carboxylic acid isopropyl ester trifluoroacetate]", "Ki": "0.006 to 0.023"}
{"smiles": "COc1ccc(-c2cccc(S(=O)(=O)c3cc(C(=N)N)sc3SC)c2)cc1", "note": "[Example 42, 4-(4′-Methoxy-biphenyl-3-sulfonyl)-5-methylsulfanyl-thiophene-2-carboxamidine]", "Ki": "0.006 to 0.023"}
{"smiles": "CSc1sc(C(=N)N)cc1S(=O)(=O)c1cccc(-c2ccc(N(C)C)cc2)c1", "note": "[Example 86, 4-(4′-dimethylamino-biphenyl-3-sulfonyl)-5-methylsulfanyl-thiophene-2-carboxamidine]", "Ki": "0.006 to 0.023"}
{"smiles": "CSc1sc(C(=N)N)cc1S(=O)(=O)c1cccc(-c2cccc(C(=O)C(F)(F)F)c2)c1", "note": "[Example 29, 5-Methylsulfanyl-4-[3′-(2,2,2-trifluoro-acetyl)-biphenyl-3-sulfonyl]-thiophene-2-carboxamidine trifluoroacetate]", "Ki": "0.006 to 0.023"}
{"smiles": "CSc1sc(C(=N)N)cc1S(=O)(=O)c1cnc(Cl)c(Br)c1", "note": "[Example 118, 4-(5-Bromo-6-chloro-pyridine-3-sulfonyl)-5-methylsulfanyl-thiophene-2-carboxamidine]", "Ki": "0.006 to 0.023"}
{"smiles": "CSc1sc(C(=N)N)cc1S(=O)(=O)c1cccc(-c2ccc(NC(=O)[C@@H](N)CCC(=O)O)cc2C)c1", "note": "[Example 231, 4-Amino-4-[3′-(5-carbamimidoyl-2-methylsulfanyl-thiophene-3-sulfonyl)-2-methyl-biphenyl-4-ylcarbamoyl]-butyric acid bis-trifluoroacetate]", "Ki": "0.006 to 0.023"}
{"smiles": "COc1cc(C)c(-c2cccc(S(=O)(=O)c3cc(C(=N)N)sc3SC)c2)c(NC(=O)CSCCC(=O)O)c1", "note": "[Example 252, 3-{[3′-(5-Carbamimidoyl-2-methylsulfanyl-thiophene-3-sulfonyl)-4-methoxy-6-methyl-biphenyl-2-ylcarbamoyl]-methylsulfanyl}-propionic acid trifluoroacetate]", "Ki": "0.006 to 0.023"}
{"smiles": "CSc1sc(C(=N)N)cc1S(=O)(=O)c1cccc(-c2c(C)cccc2NC(=O)CCCS(N)(=O)=O)c1", "note": "[Example 210, N-[3′-(5-Carbamimidoyl-2-methylsulfanyl-thiophene-3-sulfonyl)-6-methyl-biphenyl-2-yl]-4-sulfamoyl-butyramide trifluoroacetate]", "Ki": "0.006 to 0.023"}
{"smiles": "CSc1sc(C(=N)N)cc1S(=O)(=O)c1cccc(-c2ccc(C=O)cc2)c1", "note": "[Example 80, 4-(4′-Formyl-biphenyl-3-sulfonyl)-5-methylsulfanyl-thiophene-2-carboxamidine]", "Ki": "0.006 to 0.023"}
{"smiles": "CSc1sc(C(=N)N)cc1S(=O)(=O)c1cccc(-c2cc3[nH]cnc3cc2C)c1", "note": "[Example 30, 4-[3-(6-Methyl-3H-benzoimidazol-5-yl)-benzenesulfonyl]-5-methylsulfanyl-thiophene-2-carboxamidine bis-trifluoroacetate]", "Ki": "0.006 to 0.023"}
{"smiles": "CSc1sc(C(=N)N)cc1S(=O)(=O)c1cccc(-c2cccc([N+](=O)[O-])c2)c1", "note": "[Example 78, 5-Methylsulfanyl-4-(3′-nitro-biphenyl-3-sulfonyl)-thiophene-2-carboxamidine]", "Ki": "0.006 to 0.023"}
{"smiles": "COc1cccc(-c2cccc(S(=O)(=O)c3cc(C(=N)N)sc3SC)c2)c1", "note": "[Example 44, 4-(3′-Methoxy-biphenyl-3-sulfonyl)-5-methylsulfanyl-thiophene-2-carboxamidine]", "Ki": "0.006 to 0.023"}
{"smiles": "CSc1sc(C(=N)N)cc1S(=O)(=O)c1cccc(-c2c(C)cccc2NC(=O)NCCNS(C)(=O)=O)c1", "note": "[Example 195, 4-{2′-[3-(2-Methanesulfonylamino-ethyl)-ureido]-6′-methyl-biphenyl-3-sulfonyl}-5-methylsulfanyl-thiophene-2-carboxamidine trifluoroacetate]", "Ki": "0.006 to 0.023"}
